Experimental data published in ChEMBL document CHEMBL1201862, “PubChem BioAssay data set” (2004).
Activity calls are given as the source filed them.

How the values were obtained:
Cytochrome P450 2C19 = Cytochrome P450 2C19 (Homo sapiens, UniProt P33261); assay: Cytochrome panel assay with activity outcomes. Panel member name: p450-cyp2c19 Compounds with AC50 equal or less than 10 uM are considered active; type: functional; conditions: read-out: AC50
Cytochrome P450 2D6 = Cytochrome P450 2D6 (Homo sapiens, UniProt P10635);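 note: CYP2D6 member of a cytochrome P450 panel assay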
Chain of Cytochrome P450 2D6 (P10635 whole entry): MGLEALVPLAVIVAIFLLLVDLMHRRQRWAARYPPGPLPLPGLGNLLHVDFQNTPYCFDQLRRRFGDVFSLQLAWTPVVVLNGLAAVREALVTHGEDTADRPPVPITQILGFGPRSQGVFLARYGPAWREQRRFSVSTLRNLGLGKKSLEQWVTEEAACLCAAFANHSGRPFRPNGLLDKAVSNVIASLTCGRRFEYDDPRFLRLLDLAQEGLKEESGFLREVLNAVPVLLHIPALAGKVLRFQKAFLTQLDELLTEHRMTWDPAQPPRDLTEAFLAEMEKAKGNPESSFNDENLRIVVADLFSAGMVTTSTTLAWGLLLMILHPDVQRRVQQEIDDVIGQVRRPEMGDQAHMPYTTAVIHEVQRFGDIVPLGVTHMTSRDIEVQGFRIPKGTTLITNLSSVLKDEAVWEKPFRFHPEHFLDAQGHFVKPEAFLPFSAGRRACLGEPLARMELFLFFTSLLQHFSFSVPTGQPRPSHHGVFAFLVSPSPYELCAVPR

Cytochrome P450 3A4 [1] = target: T1, Cytochrome P450 3A4 (Homo sapiens, UniProt P08684);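 note: CYP3A4 tested as one member of a cytochrome P450 panel screen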
T1 sequence (P08684 whole entry): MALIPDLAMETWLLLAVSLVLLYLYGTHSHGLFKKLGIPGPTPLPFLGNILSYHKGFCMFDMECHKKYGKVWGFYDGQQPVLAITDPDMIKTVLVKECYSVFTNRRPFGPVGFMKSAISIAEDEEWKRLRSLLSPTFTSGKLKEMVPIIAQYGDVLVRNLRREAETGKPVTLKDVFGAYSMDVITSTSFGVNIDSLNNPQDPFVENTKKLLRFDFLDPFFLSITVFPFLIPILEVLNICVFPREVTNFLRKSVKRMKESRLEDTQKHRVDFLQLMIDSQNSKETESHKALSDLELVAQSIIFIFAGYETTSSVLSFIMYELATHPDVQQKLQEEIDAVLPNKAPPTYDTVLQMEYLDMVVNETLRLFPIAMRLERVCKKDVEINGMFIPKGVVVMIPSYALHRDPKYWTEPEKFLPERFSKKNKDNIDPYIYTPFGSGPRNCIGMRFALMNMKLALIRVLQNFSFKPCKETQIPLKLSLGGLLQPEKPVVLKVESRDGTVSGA

Cytochrome P450 1A2 = target: T2, Cytochrome P450 1A2 (Homo sapiens, UniProt P05177);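 note: PubChem cytochrome P450 panel assay, CYP1A2 panel member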
T2 sequence (P05177 whole entry): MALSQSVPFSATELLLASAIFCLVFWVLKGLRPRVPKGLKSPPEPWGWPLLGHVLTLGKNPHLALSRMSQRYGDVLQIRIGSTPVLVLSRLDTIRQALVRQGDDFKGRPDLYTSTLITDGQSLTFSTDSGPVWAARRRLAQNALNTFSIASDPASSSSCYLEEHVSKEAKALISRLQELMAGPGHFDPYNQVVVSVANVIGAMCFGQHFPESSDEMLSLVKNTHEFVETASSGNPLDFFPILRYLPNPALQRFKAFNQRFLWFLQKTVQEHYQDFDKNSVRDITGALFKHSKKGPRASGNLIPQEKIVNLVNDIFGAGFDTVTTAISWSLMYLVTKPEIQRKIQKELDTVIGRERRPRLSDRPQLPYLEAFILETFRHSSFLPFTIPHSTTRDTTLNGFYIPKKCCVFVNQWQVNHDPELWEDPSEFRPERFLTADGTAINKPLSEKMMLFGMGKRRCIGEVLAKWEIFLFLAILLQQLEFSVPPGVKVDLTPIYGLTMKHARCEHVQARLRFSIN

[2] = target: 5-hydroxytryptamine receptor 5A (Homo sapiens, UniProt P47898); assay: Counterscreen for agonists of OPRM1-OPRD1 heterodimerization: luminescence-based cell-based high throughput dose response assay to identify agonists of 5-hydroxytryptamine (serotonin) 5A receptor (HTR5A). [Related pubchem assays (depositor defined):AID504326, AID504355, AID504692, AID504904, AID504905]; type: functional
Chain of 5-hydroxytryptamine receptor 5A (P47898 whole entry): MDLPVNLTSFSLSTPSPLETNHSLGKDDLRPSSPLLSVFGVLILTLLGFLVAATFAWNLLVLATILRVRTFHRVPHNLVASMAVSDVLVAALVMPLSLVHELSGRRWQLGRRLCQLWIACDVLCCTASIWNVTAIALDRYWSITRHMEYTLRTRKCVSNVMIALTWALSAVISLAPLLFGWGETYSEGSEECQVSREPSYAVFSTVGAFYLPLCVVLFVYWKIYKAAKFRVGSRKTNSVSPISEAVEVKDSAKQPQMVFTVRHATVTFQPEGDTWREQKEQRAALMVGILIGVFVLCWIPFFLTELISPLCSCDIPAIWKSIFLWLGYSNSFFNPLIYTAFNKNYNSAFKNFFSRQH

[3] = target: Delta-type opioid receptor (Homo sapiens, UniProt P41143); assay: Counterscreen for agonists of heterodimerization of the mu 1 (OPRM1) and delta 1 (OPRD1) opioid receptors: Luminescence-based cell-based high throughput dose response assay to identify agonists of OPRD1 homodimerization. [Related pubchem assays (depositor defined):AID504326, AID504355, AID504692, AID504904, AID504905]; type: functional
Chain of Delta-type opioid receptor (P41143 whole entry): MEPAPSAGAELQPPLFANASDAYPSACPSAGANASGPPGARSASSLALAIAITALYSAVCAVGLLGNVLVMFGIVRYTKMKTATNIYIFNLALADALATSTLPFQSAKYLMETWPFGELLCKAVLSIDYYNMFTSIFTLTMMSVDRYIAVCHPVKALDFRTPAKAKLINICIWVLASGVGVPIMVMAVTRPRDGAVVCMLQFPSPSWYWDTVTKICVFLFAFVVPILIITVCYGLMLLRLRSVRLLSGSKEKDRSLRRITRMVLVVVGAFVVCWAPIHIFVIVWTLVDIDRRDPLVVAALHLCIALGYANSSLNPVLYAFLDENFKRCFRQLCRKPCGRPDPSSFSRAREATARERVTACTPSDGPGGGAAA

Mu-type opioid receptor = Mu-type opioid receptor (Homo sapiens, UniProt P35372); assay: Counterscreen for agonists of heterodimerization of the mu 1 (OPRM1) and delta 1 (OPRD1) opioid receptors: Luminescence-based cell-based high throughput dose response assay to identify agonists of OPRM1 homodimerization.; type: functional;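 note: U2OS cells expressing OPRM1 and beta-arrestin as split beta-galactosidase partners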
Chain of Mu-type opioid receptor (P35372 whole entry): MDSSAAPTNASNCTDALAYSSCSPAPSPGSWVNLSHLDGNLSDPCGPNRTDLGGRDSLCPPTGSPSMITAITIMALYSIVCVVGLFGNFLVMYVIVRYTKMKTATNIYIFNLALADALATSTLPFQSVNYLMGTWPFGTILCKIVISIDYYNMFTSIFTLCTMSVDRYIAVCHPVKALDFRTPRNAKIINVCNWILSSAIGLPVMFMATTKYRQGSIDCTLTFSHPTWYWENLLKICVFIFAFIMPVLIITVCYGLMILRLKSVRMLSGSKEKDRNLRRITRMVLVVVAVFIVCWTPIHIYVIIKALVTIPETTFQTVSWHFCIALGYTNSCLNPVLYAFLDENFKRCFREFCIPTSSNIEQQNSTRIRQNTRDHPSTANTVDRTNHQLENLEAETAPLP

Escherichia coli = assay: microbe, parasite or virus in culture
HEK293 [4] = assay: cells; conditions: Homo sapiens
[5] = target: Nucleotide-binding oligomerization domain-containing protein 2 (Homo sapiens, UniProt Q9HC29); assay: inhibition of NOD2-driven NF-kB reporter – cell-based, luminescence, uHTS, HEK293 (AID 1566); type: functional
Chain of Nucleotide-binding oligomerization domain-containing protein 2 (Q9HC29 whole entry, the tested form may be a part): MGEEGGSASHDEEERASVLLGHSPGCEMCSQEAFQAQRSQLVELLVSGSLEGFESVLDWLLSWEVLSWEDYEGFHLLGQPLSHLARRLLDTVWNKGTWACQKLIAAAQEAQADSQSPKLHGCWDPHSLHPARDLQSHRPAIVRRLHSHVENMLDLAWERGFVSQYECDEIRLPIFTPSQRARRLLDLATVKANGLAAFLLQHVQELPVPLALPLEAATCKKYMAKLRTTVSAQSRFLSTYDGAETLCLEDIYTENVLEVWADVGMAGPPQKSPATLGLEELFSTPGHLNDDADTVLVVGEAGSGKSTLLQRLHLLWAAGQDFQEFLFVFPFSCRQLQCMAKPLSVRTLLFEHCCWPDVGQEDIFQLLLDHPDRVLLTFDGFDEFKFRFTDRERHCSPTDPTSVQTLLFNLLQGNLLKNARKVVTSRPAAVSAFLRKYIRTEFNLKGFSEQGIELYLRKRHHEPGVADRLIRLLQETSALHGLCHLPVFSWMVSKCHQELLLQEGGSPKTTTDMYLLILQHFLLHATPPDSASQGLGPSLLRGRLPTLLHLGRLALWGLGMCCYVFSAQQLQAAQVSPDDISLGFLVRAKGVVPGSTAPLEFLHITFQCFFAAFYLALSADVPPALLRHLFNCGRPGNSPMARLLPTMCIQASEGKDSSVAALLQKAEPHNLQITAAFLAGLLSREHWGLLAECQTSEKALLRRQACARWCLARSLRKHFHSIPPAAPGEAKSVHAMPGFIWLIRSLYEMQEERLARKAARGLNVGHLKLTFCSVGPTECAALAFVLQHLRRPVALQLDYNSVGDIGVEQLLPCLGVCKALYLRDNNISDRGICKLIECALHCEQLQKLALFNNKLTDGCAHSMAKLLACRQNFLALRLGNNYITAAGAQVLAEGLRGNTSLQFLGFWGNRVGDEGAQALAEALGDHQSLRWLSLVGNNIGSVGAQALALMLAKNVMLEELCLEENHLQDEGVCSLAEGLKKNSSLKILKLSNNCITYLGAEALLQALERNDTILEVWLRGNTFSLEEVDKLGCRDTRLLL

HEK293 [6] = assay: inhibition of NOD1-driven NF-kB reporter – cell-based, luminescence, uHTS, primary screen (AID 1578); type: functional; conditions: Homo sapiens
HEK293 [7] = assay: cells; type: functional, cell-based; conditions: Homo sapiens
HEK293 [8] = assay: cells; type: functional, cell-based; conditions: Homo sapiens; remark: listed apart in the source
HEK293 [9] = assay: NOD2 signaling inhibitors in MDP-stimulated cells, cell-based, uHTS, luminescence (AID 2001); type: functional; conditions: Homo sapiens
[10] = luciferase reporter signal suppression in cells – H4 neuroglioma cells, luminescence, dose response (AID 1990); type: functional, cell-based
HEK293 [11] = assay: cells; type: functional, cell-based; conditions: Homo sapiens; remark: listed apart in the source
[12] = Luminescence Cell-Based Dose Response HTS to Identify Inhibitors of 5'UTR Stem-Loop Driven Prion Protein mRNA Translation in H4 Neuroglioblastoma Cells. [Related pubchem assays: 1827 (Project Summary), 1813 (Primary HTS)]; type: functional
[13] = alpha-synuclein stem-loop luciferase translation blockers – H4 neuroglioma cells, luminescence, confirmation (AID 1988); type: functional, cell-based
[14] = target: T3, Nucleotide-binding oligomerization domain-containing protein 1 (Homo sapiens, UniProt Q9Y239); assay: blockers of NOD1 pathway activity – revised, SAR follow-up (AID 2333); type: functional
T3 sequence (Q9Y239 whole entry): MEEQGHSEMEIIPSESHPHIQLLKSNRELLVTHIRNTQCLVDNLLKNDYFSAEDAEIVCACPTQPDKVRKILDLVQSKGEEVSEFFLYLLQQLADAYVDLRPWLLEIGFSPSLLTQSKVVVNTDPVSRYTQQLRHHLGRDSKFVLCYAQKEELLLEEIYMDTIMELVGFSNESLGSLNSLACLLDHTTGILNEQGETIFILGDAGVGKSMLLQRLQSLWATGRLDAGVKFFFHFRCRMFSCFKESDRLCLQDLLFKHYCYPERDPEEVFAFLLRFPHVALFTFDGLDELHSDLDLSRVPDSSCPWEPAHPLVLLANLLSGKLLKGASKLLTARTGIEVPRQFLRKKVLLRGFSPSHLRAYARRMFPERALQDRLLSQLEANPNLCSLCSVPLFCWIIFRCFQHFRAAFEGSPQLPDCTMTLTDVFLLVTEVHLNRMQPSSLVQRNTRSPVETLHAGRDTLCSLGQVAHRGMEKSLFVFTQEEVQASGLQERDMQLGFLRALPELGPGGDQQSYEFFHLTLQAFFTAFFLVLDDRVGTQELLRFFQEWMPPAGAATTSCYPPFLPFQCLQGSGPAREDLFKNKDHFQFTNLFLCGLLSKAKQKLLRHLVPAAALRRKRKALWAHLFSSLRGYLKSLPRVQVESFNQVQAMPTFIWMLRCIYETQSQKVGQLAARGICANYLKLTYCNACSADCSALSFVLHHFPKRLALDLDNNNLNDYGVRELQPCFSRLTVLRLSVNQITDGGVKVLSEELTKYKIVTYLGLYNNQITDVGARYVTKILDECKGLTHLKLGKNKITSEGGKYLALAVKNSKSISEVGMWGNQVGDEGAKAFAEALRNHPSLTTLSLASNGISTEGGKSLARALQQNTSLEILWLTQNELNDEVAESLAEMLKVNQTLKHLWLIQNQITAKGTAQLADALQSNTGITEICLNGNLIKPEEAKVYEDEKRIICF

Tumor necrosis factor = Tumor necrosis factor (Homo sapiens, UniProt P01375); assay: analog potency on TNFa NF-kB signaling – cell-based, revised, SAR follow-up (AID 2337); type: functional
Chain of Tumor necrosis factor (P01375 whole entry): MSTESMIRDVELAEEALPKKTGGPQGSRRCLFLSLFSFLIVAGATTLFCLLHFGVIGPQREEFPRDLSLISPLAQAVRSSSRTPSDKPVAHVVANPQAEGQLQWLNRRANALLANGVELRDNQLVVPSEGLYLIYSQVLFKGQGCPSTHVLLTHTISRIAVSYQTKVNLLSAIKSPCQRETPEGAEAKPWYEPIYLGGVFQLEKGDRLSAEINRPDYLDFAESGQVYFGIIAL

Cytochrome P450 3A4 [15] = target: T1, Cytochrome P450 3A4; remark: listed apart in the source

Chain of Cytochrome P450 2C19 (P33261 whole entry): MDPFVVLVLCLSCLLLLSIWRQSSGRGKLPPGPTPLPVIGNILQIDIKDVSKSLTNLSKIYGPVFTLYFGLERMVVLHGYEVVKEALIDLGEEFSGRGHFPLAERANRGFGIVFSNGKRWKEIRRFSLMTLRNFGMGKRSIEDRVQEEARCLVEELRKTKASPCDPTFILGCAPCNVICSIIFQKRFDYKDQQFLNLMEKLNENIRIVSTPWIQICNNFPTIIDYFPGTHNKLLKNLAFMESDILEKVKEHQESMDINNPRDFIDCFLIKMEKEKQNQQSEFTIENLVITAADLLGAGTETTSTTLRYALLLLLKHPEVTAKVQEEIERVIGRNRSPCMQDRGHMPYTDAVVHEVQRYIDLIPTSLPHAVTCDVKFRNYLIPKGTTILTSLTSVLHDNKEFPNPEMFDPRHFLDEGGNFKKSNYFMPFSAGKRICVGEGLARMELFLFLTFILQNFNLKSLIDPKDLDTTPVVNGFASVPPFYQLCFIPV

CC(C)n1nnc2ccccc2c1=O
AC50 (Cytochrome P450 2C19): 39.8 µM (inconclusive) | AC50 (Cytochrome P450 2D6): inconclusive | AC50 (Cytochrome P450 3A4 [1]): inconclusive | AC50 (Cytochrome P450 1A2): 11.2 µM (inconclusive)

CN(C)C(CNC(=O)c1ccc(Br)cc1)c1ccco1 (centres undefined)
EC50 [2]: > 92.5 µM (inactive) | EC50 [3]: > 92.5 µM (inactive) | EC50 (Mu-type opioid receptor): > 92.5 µM (inactive)

CCOc1ccc(Nc2nc(O)c3c(n2)CCCC3)cc1
AC50 (Escherichia coli): 31.7 µM (active)

COc1cc(C(=O)Nc2sc3c(c2C(=O)O)CCC(C)C3)cc(OC)c1OC (centres undefined)
IC50 (HEK293 [4]): > 20 µM (inactive) | EC50 [5]: 2.24 µM (active) | EC50 (HEK293 [6]): 4.16 µM (active) | IC50 (HEK293 [7]): > 20 µM (inactive) | IC50 (HEK293 [8]): > 20 µM (inactive) | IC50 (HEK293 [9]): 9.76 µM (active) | EC50 [10]: > 120 µM (not active) | IC50 (HEK293 [11]): > 20 µM (inactive) | EC50 [12]: > 120 µM (not active) | EC50 [13]: 12.8 µM (active) | IC50 [14]: 5.19 µM (active) | IC50 (Tumor necrosis factor): 7.41 µM (active)

CCOc1cc(CNCCO)c(Cl)cc1OCC(=O)NCCc1ccccc1
AC50 (Cytochrome P450 2D6): inconclusive

COC(=O)c1cc(OC)c(OC)cc1N=C(S)N1CCN(C)CC1
AC50 (Cytochrome P450 2D6): inconclusive | AC50 (Cytochrome P450 3A4 [15]): 14.1 µM (inconclusive) | AC50 (Cytochrome P450 1A2): 11.2 µM (inconclusive)

Cc1cccc(NC(=S)NC(=O)CCc2ccccc2)c1
EC50 [2]: > 92.5 µM (inactive) | AC50 (Cytochrome P450 3A4 [15]): 25.1 µM (inconclusive) | EC50 [3]: > 92.5 µM (inactive) | EC50 (Mu-type opioid receptor): > 92.5 µM (inactive)

COC(=O)c1ccc(CNC(=O)C2CCC(=O)N(Cc3ccccn3)C2)cc1 (centres undefined)
AC50 (Escherichia coli): 131 µM (active)
